Four compounds from patent US10323032B2, “P2X7 Modulators” (Janssen Pharmaceutica NV, priority 2013, dated 2019) can be followed below.

Like-named read-outs stand apart in the source and are kept apart here.

For the assay, the target named is P2X7 receptor (Homo sapiens (Human), UniProt Q99572). In words: P2X7 antagonism in human PBMCs: IL-1β release (ELISA) after LPS + Bz-ATP. The class given is cell-based. The note with it: LPS 30 ng/ml + 0.5 mM Bz-ATP; for remaining activity at 10 µM: read-out: PBMC 10 μM (% control). How it is done:
Human blood was collected using a blood donor program. […] Cells were incubated for an additional 1.5 hours. […] Data are analyzed and graphed on Graphpad Prism 5. […] The IC50 for each compound is then uploaded into 3DX.
Background: ELISA stands for enzyme-linked immunosorbent assay.

Where [1] appears, read: P2X7, Table 3 (additional runs), 10 μM compound.

Chain of P2X7 receptor (Q99572 whole entry): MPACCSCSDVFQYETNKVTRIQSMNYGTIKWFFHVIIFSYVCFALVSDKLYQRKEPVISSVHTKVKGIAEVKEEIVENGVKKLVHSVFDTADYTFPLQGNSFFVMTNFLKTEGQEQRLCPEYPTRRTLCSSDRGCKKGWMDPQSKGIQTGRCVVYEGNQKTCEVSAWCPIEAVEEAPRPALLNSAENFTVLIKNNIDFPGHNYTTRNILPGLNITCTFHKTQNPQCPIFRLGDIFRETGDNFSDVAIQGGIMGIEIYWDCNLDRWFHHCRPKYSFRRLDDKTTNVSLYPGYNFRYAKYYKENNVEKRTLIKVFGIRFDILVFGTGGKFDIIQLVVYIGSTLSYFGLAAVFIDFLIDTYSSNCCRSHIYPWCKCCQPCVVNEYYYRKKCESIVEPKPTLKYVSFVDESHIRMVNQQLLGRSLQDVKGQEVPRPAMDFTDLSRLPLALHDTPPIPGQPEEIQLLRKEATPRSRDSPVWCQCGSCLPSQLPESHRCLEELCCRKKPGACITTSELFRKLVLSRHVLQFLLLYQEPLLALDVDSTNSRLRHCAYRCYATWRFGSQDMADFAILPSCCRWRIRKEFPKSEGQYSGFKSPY

With `Cc1nc2c(c(-c3ccn[nH]3)n1)C[C@H](C)N(C(=O)c1ccc(Cl)cc1F)C2` (single isomer, unassigned) [Example 89, (S*)-(4-chloro-2-fluorophenyl)(2,6-dimethyl-4-(1H-pyrazol-5-yl)-5,6-dihydropyrido[3,4-d]pyrimidin-7(8H)-yl)methanone], the remaining activity at 10 µM (P2X7, Table 2, 10 μM compound) was -16.4%. `Cc1nc2c(c(-c3ccn[nH]3)n1)C[C@@H](C)N(C(=O)c1cccc(OC(F)(F)F)c1)C2` (single isomer, unassigned) [Example 141, (R*)-(2,6-dimethyl-4-(1H-pyrazol-5-yl)-5,6-dihydropyrido[3,4-d]pyrimidin-7(8H)-yl)(3-(trifluoromethoxy)phenyl)methanone]: under setting [1], the remaining activity at 10 µM was -0.6%. Still for that read-out and setting: with `Cc1nc2c(c(-c3ccn[nH]3)n1)C[C@@H](C)N(C(=O)c1cccc(F)c1Cl)C2` (single isomer, unassigned) [Example 144, (R*)-(2-chloro-3-fluorophenyl)(2,6-dimethyl-4-(1H-pyrazol-5-yl)-5,6-dihydropyrido[3,4-d]pyrimidin-7(8H)-yl)methanone] the figure was -18.9%. On to `Cc1nc2c(c(-c3ccn[nH]3)n1)CC(C)N(C(=O)c1cccc(OC(F)(F)F)c1)C2` (stereo not shown) [Example 140, (2,6-dimethyl-4-(1H-pyrazol-5-yl)-5,6-dihydropyrido[3,4-d]pyrimidin-7(8H)-yl)(3-(trifluoromethoxy)phenyl)methanone], for which the “PBMC 10 μM (% control)” value (Table 3 (additional runs), 10 μM compound) worked out at 52.5 % control.
